According to US20210196711A1, “LYSINE-SPECIFIC HISTONE DEMETHYLASE AS A NOVEL THERAPEUTIC TARGET IN MYELOPROLIFERATIVE NEOPLASMS” (Imago Biosciences, Inc., priority 2015, published 2021):
Structures can show the parent of a compound that is named as a salt.

Experiments:
[1] = tested on: JAK2^V617F knock-in mouse model of myeloproliferative neoplasm (MPN); experiment: JAK2V617F knock-in mouse model of myeloproliferative neoplasm; assay type: in vivo; details: JAK2^V617F mice, 25 mg/kg/day, 56 days, compared to vehicle
Description: Compound [IMG 7289; need number or name inserted] was evaluated in the JAK2^V617F knock-in mouse model of myeloproliferative neoplasm (MPN). The procedure of Hasan et al. Blood, 2013, 122, 1464-1477, was followed. (See also Mullally et al. Cancer Cell 2010, 17, 584-596.) Animals bearing the JAK2^V617F were treated with Compound 2 tosylate (25 mg/kg/day) or vehicle for a total of 56 days. Blood samples were taken at the indicated time points and analyzed for hematocrit, white blood cell count (WBC) and platelets as described in Hasan et al. Non-drug-treated animals expressing the JAK2^V617F mutation manifested elevated levels of platelets, WBCs, and hematocrit as compared to wild-type animals.

[2] = primary myelofibrosis patients, 50 to 100 mg/day in combination with prednisone; cited from earlier work

SMILES	hematocrit [1]	platelet levels [1]	white blood cell count [1]	patients with improved anemia and thrombocytopenia [2]	patients with reduced spleen size [2]
CN1CCN(C(=O)[C@H](CCCN[C@@H]2C[C@H]2c2ccc(F)cc2)NC(=O)c2ccc(-n3ccnn3)cc2)CC1 [Compound 2 tosylate]	reduction	reduction	reduction		
O=C1CCC(N2C(=O)c3ccccc3C2=O)C(=O)N1 (centres unmarked) [Thalidomide]				approximately 60%	approximately 20%
